Test results from US8937068B2, “Pyridopyrazine derivatives and their use” (Zentaris GmbH, priority 2005, dated 2015).

Experiments:
PI3K → pAkt = test: Cellular substrate phosphorylation (Western Blotting), PI3K substrate pAkt; assay type: cell-based; settings: 50 μM, 5 h
Method: This method can be used to predict whether the kinase modulator under study also achieves the desired effect in a cellular context, i.e. in this case, a substrate protein downstream of the target kinase is investigated for its phosphorylation status. For this purpose, the cells incubated with substance are lysed and the total protein separated on a reducing polyacrylamide gel. The proteins are then transferred to a PVDF membrane by means of Western Blotting and the substrate bands sought are made visible with specific antibodies and a suitable detection method. The substrate proteins downstream of the target kinases are detected simultaneously with a respectively special anti-phospho-antibody and at the same time a total antibody which recognizes the substrate total protein. This simultaneous measurement can be made using the duplex technology of the ODYSSEY imagers (LiCOR). The intensity of the total substrate bands is used for normalising or quantifying the phosphorylation inhibition or activation.
Suitable tumour cell lines (e.g. BxPC3, Hct116 or MDA MB468) were injected into six-well microtitre plates in a defined cell number (e.g. 350 000 cells/well for BxPC3 and Hct116) in the respective standard complete medium and then incubated overnight at 37° C., 5% CO2 and 95% air humidity. The cells were then incubated for a further 24 h under serum-reduced conditions i.e. in the respective medium but with only 0.25% serum. The test substances were prepared as stock solutions (10 mM) in DMSO and incubated with the cells in final concentrations of 5, 15.8 and 50 μM for 5 h. This was followed by cell lysis in 25 mM Tris, 150 mM NaCl, 10 mM Na-pyrophosphate, 2 mM EGTA, 25 mM β-glycerophosphate, 25 mM NaF, 10% glycerine, 0.75% NP-40, 100 μM NaVO4 buffer. Following protein quantification by means of BCA (bicinchonic acid protein assay kit, Sigma) Assay, protein quantities of about 20 μg per track were separated on a Lämmli polyacrylamide gel and then transferred to a PVDF membrane (Millipore) by means of Semi-Dry Western-Blotting at 0.8 mA/cm^2 for 1 h. This was followed by pre-hybridisation of the membrane for 1 hour in I-block reagent (Applied Biosystems) and incubation overnight with the specific antibodies. To determine the Erk and PI3K inhibition, the respectively downstream substrates Rsk1 were detected with the total antibody (Rsk #sc-231g C-21, Santa Cruz) and the phospho-antibody (Phospho-p90RSK (S380) #9341, NEB Cell Signalling) and Akt was detected with the total antibody (Akt1 #sc-1618 C-20, Santa Cruz) and the phospho-antibody (Phospho-Akt (Ser 473) #9271, NEB Cell Signaling). After washing the membrane, secondary antibody incubation was carried out with anti-rabbit IR Dye 800 (#611-732-127, Rockland) for the phospho-antibody and anti-goat Alexa Fluor 680 (#A-21081, Molecular Probes) for the total protein-antibody. After incubating for 30 min at room temperature in the dark, the hybridisation of the detection antibody on the membrane was detected by scanning in the ODYSSEY imager (LiCOR).
The reduction of the fluorescence intensity of the phospho-substrate bands (pRsk and pAkt) is given in the table below as % inhibition and relates to the following formula:
The band intensity (fluorescence intensity) of the respective non-inhibited (without substance) phospho-substrates was used as 100% control.

Jnk1 + Jnk2 = test: Cell-free kinase assay (ALPHA technology), Jnk1 + Jnk2; assay type: biochemical, human; settings: 10 μM ATP
Outline: (§1)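 Recombinant human GST- or His-tagged kinases were assayed for 1 h with ALPHA bead detection read after overnight standing. For PI3Kalpha: 1 ng enzyme, 100 μM ATP, 20 μM PIP2 in Hepes pH 7.4, detected by GST:Grp1/biotin-PIP3 competition. The p38alpha and Jnk assays followed the MAPK format (10 μM ATP, biotin-MBP, anti-phospho-MBP); IC50 from %-inhibition.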

PI3Kalpha = PI3Kalpha (Homo sapiens (Human), UniProt P42336); test: Cell-free kinase assay (ALPHA technology), PI3Kalpha; assay type: biochemical; settings: 100 μM ATP
PI3Kalpha, sequence (P42336 whole entry): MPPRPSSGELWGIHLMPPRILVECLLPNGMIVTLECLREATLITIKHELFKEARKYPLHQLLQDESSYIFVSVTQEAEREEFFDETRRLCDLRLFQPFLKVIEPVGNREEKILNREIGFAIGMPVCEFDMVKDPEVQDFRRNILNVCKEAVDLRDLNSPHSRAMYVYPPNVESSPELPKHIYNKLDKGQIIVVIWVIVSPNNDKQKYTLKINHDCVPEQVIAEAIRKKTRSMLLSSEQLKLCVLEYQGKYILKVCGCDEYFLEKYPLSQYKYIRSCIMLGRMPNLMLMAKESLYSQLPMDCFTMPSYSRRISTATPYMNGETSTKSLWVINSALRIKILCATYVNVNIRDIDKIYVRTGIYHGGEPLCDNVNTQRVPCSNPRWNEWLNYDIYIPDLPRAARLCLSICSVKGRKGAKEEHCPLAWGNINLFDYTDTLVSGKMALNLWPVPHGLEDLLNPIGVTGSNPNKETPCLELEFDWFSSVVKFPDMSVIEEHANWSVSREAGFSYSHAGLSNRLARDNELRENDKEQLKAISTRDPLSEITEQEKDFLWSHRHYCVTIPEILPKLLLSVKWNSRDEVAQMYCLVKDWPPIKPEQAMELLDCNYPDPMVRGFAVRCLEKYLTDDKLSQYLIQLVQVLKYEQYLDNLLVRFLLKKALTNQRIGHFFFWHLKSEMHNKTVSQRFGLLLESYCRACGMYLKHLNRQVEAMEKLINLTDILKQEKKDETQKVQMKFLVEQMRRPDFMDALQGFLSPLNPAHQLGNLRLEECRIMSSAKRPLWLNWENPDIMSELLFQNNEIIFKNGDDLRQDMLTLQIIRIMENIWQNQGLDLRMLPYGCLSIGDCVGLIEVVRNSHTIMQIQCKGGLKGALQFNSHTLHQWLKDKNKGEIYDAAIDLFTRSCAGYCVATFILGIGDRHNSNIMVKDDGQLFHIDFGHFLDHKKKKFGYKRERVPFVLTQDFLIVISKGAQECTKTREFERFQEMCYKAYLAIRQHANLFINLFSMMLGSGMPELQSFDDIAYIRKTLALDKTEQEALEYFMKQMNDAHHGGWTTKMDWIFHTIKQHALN
PI3Kalpha, sequence (P27986 whole entry partner): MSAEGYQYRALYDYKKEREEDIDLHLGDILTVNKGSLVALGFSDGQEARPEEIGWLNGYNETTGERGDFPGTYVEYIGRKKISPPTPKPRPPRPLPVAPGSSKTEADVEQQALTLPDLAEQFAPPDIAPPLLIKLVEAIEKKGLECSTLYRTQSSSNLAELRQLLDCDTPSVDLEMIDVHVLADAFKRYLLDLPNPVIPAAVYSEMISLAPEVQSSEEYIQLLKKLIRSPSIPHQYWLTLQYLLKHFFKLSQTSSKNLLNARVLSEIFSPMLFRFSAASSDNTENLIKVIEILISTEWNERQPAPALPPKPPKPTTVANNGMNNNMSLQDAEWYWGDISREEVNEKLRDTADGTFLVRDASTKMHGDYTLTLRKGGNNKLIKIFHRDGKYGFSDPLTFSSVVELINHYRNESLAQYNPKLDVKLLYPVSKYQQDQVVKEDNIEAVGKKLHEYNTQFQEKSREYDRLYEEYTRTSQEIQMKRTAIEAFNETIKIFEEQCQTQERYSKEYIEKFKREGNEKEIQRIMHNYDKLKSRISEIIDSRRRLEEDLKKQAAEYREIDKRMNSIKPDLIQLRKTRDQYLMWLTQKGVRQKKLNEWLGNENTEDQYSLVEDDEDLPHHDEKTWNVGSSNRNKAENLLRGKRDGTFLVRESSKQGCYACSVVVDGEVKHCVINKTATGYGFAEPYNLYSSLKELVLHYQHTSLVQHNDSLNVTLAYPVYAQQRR
Outline: as §1

p38alpha = p38alpha (Homo sapiens (Human), UniProt Q16539); test: Cell-free kinase assay (ALPHA technology), p38alpha; assay type: biochemical; settings: 10 μM ATP
p38alpha, sequence (Q16539 whole entry): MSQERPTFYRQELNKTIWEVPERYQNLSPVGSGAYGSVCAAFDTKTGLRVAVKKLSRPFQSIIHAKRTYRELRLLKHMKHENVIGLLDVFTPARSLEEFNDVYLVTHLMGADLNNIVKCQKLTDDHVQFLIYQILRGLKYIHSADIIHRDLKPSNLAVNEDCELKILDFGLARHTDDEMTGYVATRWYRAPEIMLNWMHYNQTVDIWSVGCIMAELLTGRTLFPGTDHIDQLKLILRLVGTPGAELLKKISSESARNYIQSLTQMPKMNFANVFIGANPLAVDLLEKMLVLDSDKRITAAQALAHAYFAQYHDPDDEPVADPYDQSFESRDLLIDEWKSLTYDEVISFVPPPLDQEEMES

Row | SMILES | IC50 (Jnk1 + Jnk2) [µM] | IC50 (PI3Kalpha) [µM] | IC50 (p38alpha) [µM] | inhibition at 50 µM (PI3K → pAkt) [%] | Inhibition of cellular substrate phosphorylation PI3K → pAkt (PI3K → pAkt) [%]
1 | C=CCNC(=S)Nc1ccc2ncc(-c3ccc(O)cc3)nc2n1 [Compound 30, 1-allyl-3-[3-(4-hydroxy-phenyl)-pyrido[2,3-b]pyrazin-6-yl]-thiourea] | 21.8 | 0.37 | > 100 | 100 | 
2 | CCNC(=O)Nc1ccc2ncc(Nc3ccc(C)cc3)nc2n1 [Compound 150, 1-Ethyl-3-(3-p-tolylamino-pyrido[2,3-b]pyrazin-6-yl)-urea] | > 100 | 0.129 | 18.1 | 90 | 
3 | CCNC(=O)Nc1ccc2ncc(-c3ccc(O)c(OC)c3)nc2n1.Cc1ccc(S(=O)(=O)O)cc1 [Compound 183, 1-Ethyl-3-[3-(4-hydroxy-3-methoxy-phenyl)-pyrido[2,3-b]pyrazin-6-yl]-urea p-Toluolsulfonate] | 4.7 | 2.8 | > 100 |  | 80

The next compounds have a lower IC50 (Jnk1 + Jnk2) than those just listed; values first:

Row | IC50 (Jnk1 + Jnk2) [µM] | IC50 (PI3Kalpha) [µM] | IC50 (p38alpha) [µM] | SMILES | inhibition at 50 µM (PI3K → pAkt) [%] | Inhibition of cellular substrate phosphorylation PI3K → pAkt (PI3K → pAkt) [%]
4 | 1 | 0.49 | > 100 | CCNC(=O)Nc1ccc2ncc(-c3ccc(O)c(OC)c3)nc2n1 [Compound 124, 1-Ethyl-3-[3-(4-hydroxy-3-methoxy-phenyl)-pyrido[2,3-b]pyrazin-6-yl]-urea] | 90 | 
5 | 3.3 | 1.1 | > 100 | O=C(NCCCCO)Nc1ccc2ncc(-c3ccccc3)nc2n1 [Compound 146, 1-(4-Hydroxy-butyl)-3-(3-phenyl-pyrido[2,3-b]pyrazin-6-yl)-urea] | 10 | 
6 | 2.9 | 2.4 | > 100 | CCNC(=O)Nc1ccc2ncc(-c3cnn(C)c3)nc2n1 [Compound 173, 1-Ethyl-3-[3-(1-methyl-1H-pyrazol-4-yl)-pyrido[2,3-b]pyrazin-6-yl]-urea] | 50 | 
